The target in assay [1] is T1, ΔC-TWIK-2 (Homo sapiens, UniProt Q9Y257).
T1 sequence (Q9Y257 1-276): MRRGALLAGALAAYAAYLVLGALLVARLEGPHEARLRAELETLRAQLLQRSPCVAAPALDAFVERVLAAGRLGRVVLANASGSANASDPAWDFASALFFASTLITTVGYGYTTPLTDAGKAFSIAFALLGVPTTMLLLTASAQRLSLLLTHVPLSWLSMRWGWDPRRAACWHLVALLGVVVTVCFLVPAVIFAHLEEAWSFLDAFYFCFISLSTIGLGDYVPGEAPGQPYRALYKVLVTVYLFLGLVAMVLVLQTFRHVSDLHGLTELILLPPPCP
Nature of the assay: automated whole-cell patch clamp. In kind it is cell-based. On the technique in general: Patch clamp records ionic current or voltage across a cell membrane.

In assay [2] the target is T2, TWIK-2 (Homo sapiens, UniProt Q9Y257).
T2 sequence (Q9Y257 1-313): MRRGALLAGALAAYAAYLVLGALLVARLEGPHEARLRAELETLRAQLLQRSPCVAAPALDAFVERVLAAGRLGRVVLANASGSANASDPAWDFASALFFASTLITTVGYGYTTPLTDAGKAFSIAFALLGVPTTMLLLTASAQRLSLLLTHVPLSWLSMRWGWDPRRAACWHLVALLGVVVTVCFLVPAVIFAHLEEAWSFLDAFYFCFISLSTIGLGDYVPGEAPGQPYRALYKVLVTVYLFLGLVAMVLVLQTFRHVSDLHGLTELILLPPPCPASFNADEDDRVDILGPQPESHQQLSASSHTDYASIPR
Nature of the assay: automated whole-cell patch clamp, HEK293 GnTI- cells. Format: cell-based. The note with it: inhibition; voltage step to +60 mV from holding -90 mV.

Turning to `COc1ccccc1C(=O)Nc1cccc(NC(=O)c2cccc(C)c2)c1` [ML365], the “percentage inhibition at maximum drug concentration” value in assay [1] is reported as “in ΔC-TWIK-2, we see a significant reduction in percentage inhibition at maximum drug concentration”. In assay [2], this molecule came in with an IC50 of 1500 nM.

The term IC50 denotes the concentration that inhibits the measured activity by half. Higher therefore signals weaker potency.

The record behind these values is paper PMC11952367 (bioRxiv, 2025).
